Data as given in patent publication US11865105B2, “Sphingosine pathway modulating compounds for the treatment of cancers” (Enzo Biochem, Inc., priority 2017, dated 2024).

Assays:
[1] = tested on: Hep G2 cells; assay: Apoptosis/necrosis assay (flow cytometry, GFP Certified Apoptosis/Necrosis detection kit); format: cell-based, human; conditions: 24 hours, SK1-I 10, 20, 40 μM, ozanimod 10, 20, 40 μM, ABC294640 10, 20, 40 μM
Description: (§1) Apoptosis/necrosis assays evaluating the effect of different concentrations of each of ozanimod, ABC294640 and SK1-I on the four human hepatocellular carcinoma cell lines, Hep G2, Hep 3B, Huh 7 and PLC-PRF5 were also performed.
(§2) The protocol used for the apoptosis assays was: • Plated cells in 6-well plates and incubated at 37° C. overnight. • Prepared […], 20 μM, and 40 μM. • SK1-I: 10 μM, 20 μM, and 40 μM. • Control: 0.2% DMSO. • Aspirated the medium from the 6-well plates and added test compound concentrations in media or 0.2% DMSO control in media. Incubated at 37° C. for 24 hours. • Collected and processed the cells following the flow cytometry protocol of the GFP Certified® Apoptosis/Necrosis detection kit from Enzo Life Sciences, Inc. (product no. ENZ-51002; Farmingdale, NY, USA).
(§3) FIGS. 5-16 present graphs plotting the data from these 24-hour apoptosis assays for the different concentrations of compounds and no-drug control for the various cell lines. Channel FL2 picks up the apoptosis signal and channel FL3 picks up the necrosis signal. Data points in Quadrant 3 (Q3) in the graphs corresponds to cells undergoing apoptosis (cells positive for the apoptosis detection reagent of the assay). Data points in Quadrant 2 (Q2) in the graphs corresponds to cells that are positive for the apoptosis detection reagent and positive for the necrosis detection reagent of the assay (indicative of late-stage apoptosis).

[2] = tested on: Hep 3B cells; assay: as above; format: cell-based, human; conditions: 24 hours, SK1-I 10, 20, 40 μM, ozanimod 10, 20, 40 μM, ABC294640 10, 20, 40 μM
Description: as §1, §2, §3

[3] = tested on: PLC-PRF5 cells; assay: as above; format: cell-based, human; conditions: 24 hours, SK1-I 10, 20, 40 μM, ozanimod 5, 10, 20 μM, ABC294640 10, 20, 40 μM
Description: as §1
(§4) The protocol used for the apoptosis assays was: • Plated cells in 6-well plates and incubated at 37° C. overnight. • Prepared concentrations of test compound and control compound DMSO in media. • Ozanimod: 5 μM, 10 μM, and 20 μM. • ABC294640: 10 μM, 20 μM, and 40 μM. • SK1-I: 10 μM, 20 μM, and 40 μM. • Control: 0.2% DMSO. • Aspirated the medium from the 6-well plates and added test compound concentrations in media or 0.2% DMSO control in media. Incubated at 37° C. for 24 hours. • Collected and processed the cells following the flow cytometry protocol of the GFP Certified® Apoptosis/Necrosis detection kit from Enzo Life Sciences, Inc. (product no. ENZ-51002; Farmingdale, NY, USA).
as §3

[4] = tested on: Huh7 cells; assay: as above; format: cell-based, human; conditions: 24 hours, SK1-I 10, 20, 40 μM, ozanimod 5, 10, 20 μM, ABC294640 10, 20, 40 μM
Description: as §1, §4, §3

[5] = tested on: primary human hepatocytes; assay: Apoptosis assay on normal (non-cancerous) primary human hepatocytes; format: cell-based; conditions: 24 hours; SK1-I 10, 20, 40 μM; ozanimod 2.5, 5, 10 μM; any concentration tested
Description: In still further experiments, the effects of SK1-I and ozanimod on normal (non-cancerous) primary human hepatocytes were investigated. Fresh human hepatocytes in a 12-well plate (HUF12) were obtained from Triangle Research Labs (Durham, NC, USA; part of Lonza Group) and handled according to the supplier's protocol. The shipping medium was aspirated from each well and replaced with 1 ml per well of warm Hepatocyte Maintenance Medium. The plate was then placed in a 5% CO2 incubator at 37° C. and the hepatocytes were allowed to acclimate overnight. The Hepatocyte Maintenance Medium was replaced before treatment with drug or no-drug control, and the hepatocytes were treated with 0 μM (no-drug control), 10 μM, 20 μM, or 40 μM SK1-I or 0 μM, 2.5 μM, 5 μM, or 10 μM ozanimod for 24 hours under incubation. The cells were then harvested and analyzed using the GFP Certified® Apoptosis/Necrosis detection kit. The results are shown in FIGS. 19A-D for SK1-I and FIGS. 20A-D for ozanimod as follows.

[6] = tested on: human hepatocellular carcinoma cell lines, Hep G2, Huh 7, and PLC-PRF5; assay: MTT cell viability assay (48 hours); format: cell-based; conditions: Hep G2, Huh 7, PLC-PRF5
Description: The following MTT assay protocol was followed. • Prepared stock solutions: 50 mM ozanimod, 50 mM ABC294640, 10 mM SK1-I in DMSO. • Plated 20000 cells in 160 μl medium per well in 96-well plates for each cell line and incubated at 37° C. overnight. • Prepared compound serial dilutions: for ozanimod and ABC294640: dilute stock 50 mM 1:50 in medium to 1000 μM; for SK1-I, dilute stock 10 mM 1:50 in medium to […] them make serial 1:1.8 fold serial dilution to the titration. For negative control, diluted DMSO 1:50 to medium. • Added 40 μl negative control and serially titrated compounds to 160 μl of cells for each cell line. Performed in triplicate for each cell line. • Incubated at 37° C. for 72 hours. • Performed assay using Vybrant MTT Cell Proliferation Assay kit (V-13154) (Molecular Probes) from Thermo Fisher Scientific (Waltham, MA USA).
48-hour treatment MTT assays were also performed as follows.

[7] = tested on: Jurkat cells (human T-cell leukemia cell line); assay: Apoptosis assay; format: cell-based; conditions: SK1-I 10, 20 μM, ozanimod 5, 10 μM
Description: as §4, §3

[8] = tested on: Jurkat cells; assay: Cell viability effects (FIG. 21); format: cell-based, human; conditions: Jurkat cells without IL-2; 5 μM of each agent

Q: Which results are given for `O=C(NCc1ccncc1)C12CC3C[C@H](C1)CC(c1ccc(Cl)cc1)(C3)C2` [ABC294640, (7 S)-3-(4-chlorophenyl)-N-(pyridin-4-ylmethyl)adamantane-1-carboxamide]?
A: induction of apoptosis [1]: failed to induce apoptosis; induction of apoptosis [2]: did not substantially induce apoptosis; induction of apoptosis [3]: did not substantially induce apoptosis; induction of apoptosis [4]: failed to induce apoptosis

Q: With `CCCCCc1ccc(/C=C/[C@H](O)[C@@H](CO)NC)cc1` [SK1-I, (E,2R,3S)-2-(methylamino)-5-(4-pentylphenyl)pent-4-ene-1,3-diol] as the compound, how does the induction of apoptosis [1] read?
A: Its induction of apoptosis is “strongly induced apoptosis”.

Q: What about the induction of apoptosis [2] of the same compound?
A: The induction of apoptosis was “strongly induced apoptosis”.

Q: What about the “induction of apoptosis of primary human hepatocytes” value [5] of the same compound?
A: Its value is “did not induce apoptosis”.

Q: And the “killing hepatocellular carcinoma cells, compared with PF-543” value [6]?
A: The value was “more effective at killing hepatocellular carcinoma cells than PF-543”.

Q: What about the induction of apoptosis [3] of the same compound?
A: The induction of apoptosis was “strongly induced apoptosis”.

Q: And the induction of apoptosis [4]?
A: Its induction of apoptosis is “strongly induced apoptosis”.

Q: And the induction of apoptosis [7]?
A: The induction of apoptosis was “strongly induced apoptosis”.

Q: For `CC(C)Oc1ccc(-c2nc(-c3cccc4c3CC[C@@H]4NCCO)no2)cc1C#N` [ozanimod, 5-[3-[(1S)-1-(2-hydroxyethylamino)-2,3-dihydro-1H-inden-4-yl]-1,2,4-oxadiazol-5-yl]-2-propan-2-yloxybenzonitrile], which cell viability [8] is on record?
A: The cell viability was “strongly decreases viability”.

Q: What about the induction of apoptosis [1] of the same compound?
A: The induction of apoptosis was “strongly induced apoptosis”.

Q: And the induction of apoptosis [2]?
A: Its induction of apoptosis is “strongly induced apoptosis”.

Q: And the “induction of apoptosis of primary human hepatocytes” value [5]?
A: Its value is “did not induce apoptosis”.

Q: What about the induction of apoptosis [3] of the same compound?
A: The induction of apoptosis was “strongly induced apoptosis”.

Q: What about the induction of apoptosis [4] of the same compound?
A: Its induction of apoptosis is “strongly induced apoptosis”.

Q: And the induction of apoptosis [7]?
A: Its induction of apoptosis is “strongly induced apoptosis”.
